The assay deals with T1, EZH2 (Homo sapiens, UniProt Q15910).
T1 construct: Protocol of the Cellular Assay of Target Protein Degradation (VCaP Cells, ELISA); endogenous in cells; host or cells: VCaP cells
Kind of assay: Cellular assay of target protein degradation (VCaP cells, ELISA). Type of assay: cell-based. The settings on record: 4 hours, protein degradation range at indicated concentration (relative to DMSO control). The method, boiled down:
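EZH2 level measured by sandwich ELISA (TMB, A450 minus A562 background) in lysates of VCaP cells. Cells had been cultured at least 3 days in 5% CSS RPMI before 4 h compound exposure in 0.1% DMSO.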
(ELISA stands for enzyme-linked immunosorbent assay.)

Data on twelve molecules can be found in patent US11857519B2, “Compounds and methods for the targeted degradation of enhancer of zeste homolog 2 polypeptide” (Arvinas Operations, Inc., priority 2016, dated 2024).

T1 sequence (Q15910 whole entry): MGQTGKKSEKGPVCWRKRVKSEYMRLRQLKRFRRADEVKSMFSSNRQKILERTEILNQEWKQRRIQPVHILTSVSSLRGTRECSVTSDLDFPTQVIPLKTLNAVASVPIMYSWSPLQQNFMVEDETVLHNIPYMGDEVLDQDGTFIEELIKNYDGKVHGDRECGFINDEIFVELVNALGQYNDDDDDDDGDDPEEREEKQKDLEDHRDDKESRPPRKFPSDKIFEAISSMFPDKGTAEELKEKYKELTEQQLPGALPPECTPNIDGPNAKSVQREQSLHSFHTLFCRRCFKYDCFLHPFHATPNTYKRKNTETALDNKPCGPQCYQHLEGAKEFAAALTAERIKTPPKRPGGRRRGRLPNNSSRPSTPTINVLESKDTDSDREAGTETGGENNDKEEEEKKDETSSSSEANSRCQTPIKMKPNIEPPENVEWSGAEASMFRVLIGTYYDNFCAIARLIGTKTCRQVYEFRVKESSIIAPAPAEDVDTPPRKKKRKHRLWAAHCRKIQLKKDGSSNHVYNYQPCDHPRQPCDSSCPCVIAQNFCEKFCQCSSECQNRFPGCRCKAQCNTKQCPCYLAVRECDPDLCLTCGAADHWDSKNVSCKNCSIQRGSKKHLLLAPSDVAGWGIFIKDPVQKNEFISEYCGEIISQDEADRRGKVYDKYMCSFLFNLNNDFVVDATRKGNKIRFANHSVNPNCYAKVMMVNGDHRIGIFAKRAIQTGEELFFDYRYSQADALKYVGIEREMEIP
T1 sequence (O75530 whole entry partner): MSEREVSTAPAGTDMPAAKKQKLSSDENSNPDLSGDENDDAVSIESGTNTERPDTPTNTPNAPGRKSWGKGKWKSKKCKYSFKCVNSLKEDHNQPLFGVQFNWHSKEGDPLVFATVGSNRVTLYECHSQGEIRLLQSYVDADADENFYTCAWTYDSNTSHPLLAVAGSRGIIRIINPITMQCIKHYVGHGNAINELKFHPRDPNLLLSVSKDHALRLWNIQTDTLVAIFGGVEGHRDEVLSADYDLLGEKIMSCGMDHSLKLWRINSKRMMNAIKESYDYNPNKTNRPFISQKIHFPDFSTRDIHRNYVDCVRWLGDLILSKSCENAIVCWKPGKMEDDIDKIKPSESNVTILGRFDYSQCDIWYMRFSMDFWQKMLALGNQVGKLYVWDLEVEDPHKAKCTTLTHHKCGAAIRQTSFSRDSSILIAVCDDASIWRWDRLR
T1 sequence (Q15022 whole entry partner): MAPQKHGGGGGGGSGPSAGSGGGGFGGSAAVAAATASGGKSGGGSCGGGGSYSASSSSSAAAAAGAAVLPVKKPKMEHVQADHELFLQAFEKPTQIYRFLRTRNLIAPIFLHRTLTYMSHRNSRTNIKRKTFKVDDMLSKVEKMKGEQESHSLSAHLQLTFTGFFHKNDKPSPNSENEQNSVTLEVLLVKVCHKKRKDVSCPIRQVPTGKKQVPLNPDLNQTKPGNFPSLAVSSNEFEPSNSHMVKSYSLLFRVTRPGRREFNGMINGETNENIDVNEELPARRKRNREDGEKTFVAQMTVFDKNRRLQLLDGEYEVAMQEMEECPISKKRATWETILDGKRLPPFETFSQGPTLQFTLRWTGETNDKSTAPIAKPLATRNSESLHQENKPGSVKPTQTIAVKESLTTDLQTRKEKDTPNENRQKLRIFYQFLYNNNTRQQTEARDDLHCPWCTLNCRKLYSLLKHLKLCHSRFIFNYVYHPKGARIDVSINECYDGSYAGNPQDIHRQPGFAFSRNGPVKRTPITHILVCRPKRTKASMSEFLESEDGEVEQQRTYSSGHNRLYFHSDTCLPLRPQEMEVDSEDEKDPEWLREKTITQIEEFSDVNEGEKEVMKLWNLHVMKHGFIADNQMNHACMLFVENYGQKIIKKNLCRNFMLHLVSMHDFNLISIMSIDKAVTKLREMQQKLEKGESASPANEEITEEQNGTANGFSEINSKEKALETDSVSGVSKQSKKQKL

Regarding `CCN(c1cc(-c2ccc(OCCOCc3ccc4c(c3)C(=O)N([C@H](C(=O)N3C[C@H](O)C[C@H]3C(=O)N[C@@H](C)c3ccc(-c5scnc5C)cc3)C(C)C)C4)cc2)cc(C(=O)NCc2c(C)cc(C)[nH]c2=O)c1C)C1CCOCC1` [Compound 108, (2S,4R)-1-((S)-2-(6-((2-((3′-(((4,6-dimethyl-2-oxo-1,2-dihydropyridin-3-yl)methyl)carbamoyl)-5′-(ethyl(tetrahydro-2H-pyran-4-yl)amino)-4′-methyl-[1,1′-biphenyl]-4-yl)oxy)ethoxy)methyl)-1-oxoisoindolin-2-yl)-3-methylbutanoyl)-4-hydroxy-N-((S)-1-(4-(4-methylthiazol-5-yl)phenyl)ethyl)pyrrolidine-2-carboxamide], the “percent target protein degradation class” value was “B (B = degradation between 30% and 60%)”.
For `CCN(c1cc(-c2ccc(CCOCCOc3cc(C(C(=O)N4C[C@H](O)C[C@H]4C(=O)N[C@@H](C)c4ccc(-c5scnc5C)cc4)C(C)C)on3)cc2)cc(C(=O)NCc2c(C)cc(C)[nH]c2=O)c1C)C1CCOCC1` (stereo partly drawn) [Compound 110, (2S,4R)-1-(2-(3-(2-(2-(3′-(((4,6-dimethyl-2-oxo-1,2-dihydropyridin-3-yl)methyl)carbamoyl)-5′-(ethyl(tetrahydro-2H-pyran-4-yl)amino)-4′-methyl-[1,1′-biphenyl]-4-yl)ethoxy)ethoxy)isoxazol-5-yl)-3-methylbutanoyl)-4-hydroxy-N-((S)-1-(4-(4-methylthiazol-5-yl)phenyl)ethyl)pyrrolidine-2-carboxamide] the value was “A (A = degradation more than 60%)”; for `CCN(c1cc(-c2ccc(CCCOCCOc3cc(C(C(=O)N4C[C@H](O)C[C@H]4C(=O)N[C@@H](C)c4ccc(-c5scnc5C)cc4)C(C)C)on3)cc2)cc(C(=O)NCc2c(C)cc(C)[nH]c2=O)c1C)C1CCOCC1` (stereo partly drawn) [Compound 111, (2S,4R)-1-(2-(3-(2-(3-(3′-(((4,6-dimethyl-2-oxo-1,2-dihydropyridin-3-yl)methyl)carbamoyl)-5′-(ethyl(tetrahydro-2H-pyran-4-yl)amino)-4′-methyl-[1,1′-biphenyl]-4-yl)propoxy)ethoxy)isoxazol-5-yl)-3-methylbutanoyl)-4-hydroxy-N-((S)-1-(4-(4-methylthiazol-5-yl)phenyl)ethyl)pyrrolidine-2-carboxamide], “A (A = degradation more than 60%)”.
Then `CCN(c1cc(-c2ccc(CN3CCN(CC4CCN(c5ccc6c(c5)C(=O)N(C5CCC(=O)NC5=O)C6=O)CC4)CC3)cc2)cc(C(=O)NCc2c(C)cc(C)[nH]c2=O)c1C)C1CCOCC1` (stereo not drawn) [Compound 113, N-((4,6-dimethyl-2-oxo-1,2-dihydropyridin-3-yl)methyl)-4′-((4-((1-(2-(2,6-dioxopiperidin-3-yl)-1,3-dioxoisoindolin-5-yl)piperidin-4-yl)methyl)piperazin-1-yl)methyl)-5-(ethyl(tetrahydro-2H-pyran-4-yl)amino)-4-methyl-[1,1′-biphenyl]-3-carboxamide], with “B (B = degradation between 30% and 60%)”; and `CCN(c1cc(-c2ccc(CN3CCN(CCOCCOCC(=O)N[C@H](C(=O)N4C[C@H](O)C[C@H]4C(=O)N[C@@H](C)c4ccc(-c5scnc5C)cc4)C(C)(C)C)CC3)cc2)cc(C(=O)NCc2c(C)cc(C)[nH]c2=O)c1C)C1CCOCC1` [Compound 114, (2S,4R)-1-((S)-2-(2-(2-(2-(4-((3′-(((4,6-dimethyl-2-oxo-1,2-dihydropyridin-3-yl)methyl)carbamoyl)-5′-(ethyl(tetrahydro-2H-pyran-4-yl)amino)-4′-methyl-[1,1′-biphenyl]-4-yl)methyl)piperazin-1-yl)ethoxy)ethoxy)acetamido)-3,3-dimethylbutanoyl)-4-hydroxy-N-((S)-1-(4-(4-methylthiazol-5-yl)phenyl)ethyl)pyrrolidine-2-carboxamide], with “A (A = degradation more than 60%)”.
`CCN(c1cc(-c2ccc(CN3CCC(CN4CCN(c5ccc6c(c5)C(=O)N(C5CCC(=O)NC5=O)C6=O)CC4)CC3)cc2)cc(C(=O)NCc2c(C)cc(C)[nH]c2=O)c1C)C1CCOCC1` (stereo not drawn) [Compound 115, N-((4,6-dimethyl-2-oxo-1,2-dihydiopyridin-3-yl)methyl)-4′-((4-((4-(2-(2,6-dioxopiperidin-3-yl)-1,3-dioxoisoindolin-5-yl)piperazin-1-yl)methyl)piperidin-1-yl)methyl)-5-(ethyl(tetrahydro-2H-pyran-4-yl)amino)-4-methyl-[1,1′-biphenyl]-3-carboxamide]: the “percent target protein degradation class” value is “B (B = degradation between 30% and 60%)”.
For `CCN(c1cc(-c2ccc(CN3CCN(CCOCC(=O)N[C@H](C(=O)N4C[C@H](O)C[C@H]4C(=O)N[C@@H](C)c4ccc(-c5scnc5C)cc4)C(C)(C)C)CC3)cc2)cc(C(=O)NCc2c(C)cc(C)[nH]c2=O)c1C)C1CCOCC1` [Compound 116, (2S,4R)-1-((S)-2-(2-(2-(4-((3′-(((4,6-dimethyl-2-oxo-1,2-dihydropyridin-3-yl)methyl)carbamoyl)-5′-(ethyl(tetrahydro-2H-pyran-4-yl)amino)-4′-methyl-[1,1′-biphenyl]-4-yl)methyl)piperazin-1-yl)ethoxy)acetamido)-3,3-dimethylbutanoyl)-4-hydroxy-N-((S)-1-(4-(4-methylthiazol-5-yl)phenyl)ethyl)pyrrolidine-2-carboxamide] the value was “A (A = degradation more than 60%)”; for `CCN(c1cc(-c2ccc(CN3CCN(CCCCOCC(=O)N[C@H](C(=O)N4C[C@H](O)C[C@H]4C(=O)N[C@@H](C)c4ccc(-c5scnc5C)cc4)C(C)(C)C)CC3)cc2)cc(C(=O)NCc2c(C)cc(C)[nH]c2=O)c1C)C1CCOCC1` [Compound 117, (2S,4R)-1-((S)-2-(2-(4-(4-((3′-(((4,6-dimethyl-2-oxo-1,2-dihydropyridin-3-yl)methyl)carbamoyl)-5′-(ethyl(tetrahydro-2H-pyran-4-yl)amino)-4′-methyl-[1,1′-biphenyl]-4-yl)methyl)piperazin-1-yl)butoxy)acetamido)-3,3-dimethylbutanoyl)-4-hydroxy-N-((S)-1-(4-(4-methylthiazol-5-yl)phenyl)ethyl)pyrrolidine-2-carboxamide], “A (A = degradation more than 60%)”; for `CCN(c1cc(-c2ccc(CN3CCN(CCCOCC(=O)N[C@H](C(=O)N4C[C@H](O)C[C@H]4C(=O)N[C@@H](C)c4ccc(-c5scnc5C)cc4)C(C)(C)C)CC3)cc2)cc(C(=O)NCc2c(C)cc(C)[nH]c2=O)c1C)C1CCOCC1` [Compound 118, (2S,4R)-1-((S)-2-(2-(3-(4-((3′-(((4,6-dimethyl-2-oxo-1,2-dihydropyridin-3-yl)methyl)carbamoyl)-5′-(ethyl(tetrahydro-2H-pyran-4-yl)amino)-4′-methyl-[1,1′-biphenyl]-4-yl)methyl)piperazin-1-yl)propoxy)acetamido)-3,3-dimethylbutanoyl)-4-hydroxy-N-((S)-1-(4-(4-methylthiazol-5-yl)phenyl)ethyl)pyrrolidine-2-carboxamide], “A (A = degradation more than 60%)”.
For the molecule `CCN(c1cc(-c2ccc(N3CCN(CCCOCCOCC(=O)N[C@H](C(=O)N4C[C@H](O)C[C@H]4C(=O)N[C@@H](C)c4ccc(-c5scnc5C)cc4)C(C)(C)C)CC3)cc2)cc(C(=O)NCc2c(C)cc(C)[nH]c2=O)c1C)C1CCOCC1` [Compound 119, (2S,4R)-1-((S)-2-(2-(2-(3-(4-(3′-(((4,6-dimethyl-2-oxo-1,2-dihydropyridin-3-yl)methyl)carbamoyl)-5′-(ethyl(tetrahydro-2H-pyran-4-yl)amino)-4′-methyl-[1,1′-biphenyl]-4-yl)piperazin-1-yl)propoxy)ethoxy)acetamido)-3,3-dimethylbutanoyl)-4-hydroxy-N-((S)-1-(4-(4-methylthiazol-5-yl)phenyl)ethyl)pyrrolidine-2-carboxamide], the “percent target protein degradation class” value was “B (B = degradation between 30% and 60%)”.
“(2R,3S,4R,5S)-3-(3-chloro-2- fluorophenyl)-4-(4-chloro-2- fluorophenyl)-4-cyano-N-[4- ({1-[4-(3-{[(4,6-dimethyl-2- oxo-1,2-dibydropyridin-3- yl)methyl]carbamoyl}-5- [ethyl(oxan-4-yl)amino]-4- methylphenyl)phenyl]-1,4,7,10- tetraoxadodecan-12- yl}carbamoyl)-2- methoxyphenyl]-5-(2,2- dimethylpropyl)pyrrolidine-2- carboxamide [Compound 24]”: the “percent target protein degradation class” value is “B (B = degradation between 30% and 60%)”.
“(2R,3S,4R,5S)-3-(3-chloro-2- fluorophenyl)-4-(4-chloro-2- fluorophenyl)-4-cyano-N-[4- ({1-[4-(3-{[(4,6-dimethyl-2- oxo-1,2-dihydropyridin-3- yl)methyl]carbamoyl}-5- [ethyl(oxan-4-yl)amino]-4- methylphenyl)phenyl- 1,4,7,10,13,16- hexaoxaoctadecan-18- yl}carbamoyl)-2- methoxyphenyl]-5-(2,2- dimethylpropyl)pyrrolidine-2- carboxamide [Compound 27]”: the “percent target protein degradation class” value was “B (B = degradation between 30% and 60%)”.
